“Also recorded” adds a separate entry of the source. Starred links: 1 amine or outer side, 2 acyl side, 3 side chain; linkers in the order of their positions; H or OH if unused. Positions of bridges follow the written chain, without caps; N, C: chain ends. Non-standard residues stand in square brackets, D forms with d. Residues, ends and D or L forms follow the SMILES beside them. 2Nal = N[C@@H](Cc1ccc2ccccc2c1)C(=O)O; Gly(cPent) = N[C@H](C(=O)O)C1CCCC1; Agb = N=C(N)NCC[C@H](N)C(=O)O; hCys = N[C@@H](CCS)C(=O)O; CH2 = C([*:1])[*:2]
Columns and labels:
[1] = Serum stability test, monkey serum; assay type: in vitro ADME, cynomolgus monkey; conditions: male, residual ratio: IS ratio at 4 hours relative to 0 hours, 37° C.
Excerpt: (§1) • Mouse serum (BALB/c CrSlc, male, Japan SLC, Inc.) • Monkey serum (cynomolgus monkey, male, Japan SLC, Inc.) • Human serum (Caucasian, pool of 5 males and 5 females, KAC Co., Ltd.) • Phenacetin (Nacalai Tesque, Inc.) • Niflumic acid (Nacalai Tesque, Inc.) • Furosemide (Nacalai Tesque, Inc.) • Acetonitrile (FUJIFILM Wako Pure Chemical Corporation) • Methanol (FUJIFILM Wako Pure Chemical Corporation) • Formic acid (FUJIFILM Wako Pure Chemical Corporation) • Dimethyl sulfoxide (DMSO) (FUJIFILM Wako Pure Chemical Corporation)
(§2) Solutions of Phenacetin, niflumic acid, and furosemide were prepared in DMSO at 10 μg/ml, 150 μg/ml, and 200 μg/ml, respectively. 10 μg/ml of phenacetin in DMSO, 150 μg/ml of niflumic acid in DMSO, and 200 μg/ml of furosemide in DMSO were dissolved in a mixture of […]/methanol (75/25, v/v) (final concentrations: phenacetin; 1 ng/mL, niflumic acid: 15 ng/mL, and furosemide 20 ng/mL), and formic acid was added to the prepared test solution (final concentration: 1% (v/v)) to prepare a formic acid-containing IS solution.
(§3) The test substances were prepared in DMSO to a concentration of 10 mM each. Further, the solution was diluted with DMSO to a concentration of 2 mM to make a test substance solution.
(§4) Each serum was preincubated at 37° C. for 5 minutes, and then the test substance solution was added to a final concentration of 20 μM to initiate the reaction. The test substance-added serum was incubated at 37° C. At 0 and 4 hours after the start of the reaction, a portion of the serum was taken out and added to the formic acid-containing IS solution to stop the reaction, which was used as a measurement sample.
(§5) The test substance and IS (phenacetin, niflumic acid, and furosemide) in the measurement sample were measured by LC-MS/MS, and the peak area ratio (IS ratio) of the test substance to IS (any of phenacetin, niflumic acid, and furosemide) was calculated.
(§6) The percentage of the IS ratio at 4 hours after the start of the reaction relative to that at 0 hours after the start of the reaction was used as a residual ratio to evaluate serum stability.

[2] = Serum stability test, mouse serum; assay type: in vitro ADME; conditions: for remaining at 4 h, 20 μM: male, BALB/c CrSlc, mouse, mouse serum, residual ratio: IS ratio at 4 hours relative to 0 hours, 37° C.; for serum stability (in words): statement covers mouse, monkey and human serum, 4 hours
Excerpt: as §1, §2, §3, §4, §5, §6

[3] = Serum stability test, human serum; assay type: in vitro ADME; conditions: both sexes, residual ratio: IS ratio at 4 hours relative to 0 hours, 37° C.
Excerpt: as §1, §2, §3, §4, §5, §6

[4] = test system: C57BL/6 mice, ischemic limb blood flow; experiment: Blood flow improvement measurement tests (femoral artery/vein ligation and excision, laser Doppler); assay type: in vivo, mouse; conditions: for blood flow AUC, % of vehicle group mean: blood flow AUC from beginning to end of measurement, ratio to vehicle-treated group mean; for %, ischemia/nonischemia (blood flow on the last day of measurement): mean ± standard error, ratio of ischemic limb flow to non-ischemic limb flow
Excerpt: Six to seven-week-old C57BL/6 mice were purchased from Charles River Laboratories Japan Inc., and acclimated over six days by feeding with a FR-2 solid diet (produced by Funabashi Farm Co., Ltd.). The rearing facility switched between light and dark modes in a 12-hour cycle with light turning on at 7 a.m. and turning off at 7 p.m. Under isoflurane inhalation anaesthesia, the left thighs of the mice were dissected, and the superficial femoral arteries and veins (from just below the deep femoral arteries to the popliteal artery and vein) were ligated and excised. […] Five mice were used for each treatment group.
Blood flows were measured in ischemic (left) and non-ischemic (right) limbs using a laser Doppler perfusion imager (PeriScan PIM III, Moor LD12-HR). The improvement of blood flow was evaluated by the ratio of ischemic limb flow to non-ischemic limb flow. […] In addition, blood flow AUC was calculated to determine the ratio (%) of the mean value of the test substance-treated group to the mean value of the vehicle-treated group.

Compound | remaining at 4 h, 20 μM [1] [%] | remaining at 4 h, 20 μM [2] [%] | remaining at 4 h, 20 μM [3] [%] | serum stability (in words) [2] | blood flow AUC, % of vehicle group mean ([4]; 0.3 mg/kg) [%] | %, ischemia/nonischemia (blood flow on the last day of measurement) ([4]; 0.3 mg/kg) [%] | blood flow AUC, % of vehicle group mean ([4]; 1 mg/kg) [%] | %, ischemia/nonischemia (blood flow on the last day of measurement) ([4]; 1 mg/kg) [%]
N=C(N)NCCC[C@@H]1NC(=O)CNC(=O)[C@@H]2CSSC[C@H](NC(=O)[C@H](Cc3c[nH]c4ccccc34)NC(=O)[C@H](CC(=O)O)NC1=O)C(=O)N[C@@H](CCCNC(=N)N)C(=O)N[C@@H](Cc1c[nH]c3ccccc13)C(=O)N[C@@H](C1CCCC1)C(=O)N[C@H](C(N)=O)CSCC(=O)N[C@@H](Cc1ccc3ccccc3c1)C(=O)N[C@@H](CCCNC(=N)N)C(=O)N2 [Peptide-128] ({CH2CO}-[2Nal]RCGRDWCRW[Gly(cPent)]C-NH2; disulfide 3-8; thioether N-12) | 98.6 | 98.1 | 99 |  |  |  |  | 
CC(C)[C@@H]1NC(=O)[C@H](Cc2c[nH]c3ccccc23)NC(=O)[C@H](CC(=O)O)NC(=O)[C@H](CCNC(=N)N)NC(=O)CNC(=O)[C@H](CO)NC(=O)[C@H](CCCNC(=N)N)NC(=O)[C@H](Cc2ccc3ccccc3c2)NC(=O)CSC[C@@H](C(N)=O)NC(=O)[C@H](C2CCCC2)NC(=O)[C@H](Cc2c[nH]c3ccccc23)NC(=O)[C@H](CCCNC(=N)N)NC1=O [Peptide-119] | 21.1 | 70.9 | 88.5 |  |  |  |  | 
N=C(N)NCCC[C@@H]1NC(=O)[C@H](Cc2ccc3ccccc3c2)NC(=O)CSC[C@@H](C(N)=O)NC(=O)[C@H](C2CCCC2)NC(=O)[C@H](Cc2c[nH]c3ccccc23)NC(=O)[C@H](CCCNC(=N)N)NC(=O)[C@@H]2CCSSCC[C@H](NC1=O)C(=O)NCC(=O)N[C@@H](CCNC(=N)N)C(=O)N[C@@H](CC(=O)O)C(=O)N[C@@H](Cc1c[nH]c3ccccc13)C(=O)N2 [Peptide-9] ({CH2CO}-[2Nal]R[hCys]G[Agb]DW[hCys]RW[Gly(cPent)]C-NH2; disulfide 3-8; thioether N-12) | 93 | 95.8 | 118 | high serum stability; also recorded: higher serum stability |  |  |  | 
CC(=O)N[C@H]1[C@H]([C@H](O)[C@H](O)CO)O[C@](CO)(OC[C@H]2O[C@@H](OC3[C@@H](CO)C[C@H](O[C@@H]4[C@@H](OC[C@H]5OC(O[C@H]6[C@H](O)[C@@H](NC(C)=O)C(O[C@H]7[C@H](O)[C@@H](NC(C)=O)C(OCC(=O)NCCCC[C@H](NC(=O)CNC(=O)CNC(=O)CNC(=O)CNC(=O)[C@@H]8CSCC(=O)N[C@@H](Cc9ccc%10ccccc%10c9)C(=O)N[C@H](CCCNC(=N)N)C(=O)N[C@@H](CO)C(=O)NCC(=O)N[C@@H](CCNC(=N)N)C(=O)N[C@H](CC(N)=O)C(=O)N[C@@H](Cc9c[nH]c%10ccccc9%10)C(=O)N[C@@H](C(C)N)C(=O)N[C@H](CCCNC(=N)N)C(=O)N[C@@H](Cc9c[nH]c%10ccccc9%10)C(=O)N[C@@H](C9CCCC9)C(=O)N8)C(=O)NCCOCCOCCOCCOCCOCCOCCOCCOCCOCCOCCOCCOCCC(=O)NCCOCCOCCOCCOCCOCCOCCOCCOCCOCCOCCOCCOCCC(=O)N[C@H](CCCCNC(=O)CCN8C(=O)CC(C)C8=O)C(N)=O)O[C@@H]7CO)O[C@@H]6CO)[C@@H](O)[C@@H](O[C@H]6O[C@H](CO)[C@@H](O)[C@H](O)[C@@H]6O[C@@H]6O[C@H](CO)C(O[C@@H]7O[C@H](CO[C@]8(C(=O)O)C[C@H](O)[C@@H](NC(C)=O)[C@H]([C@H](O)[C@H](O)CO)O8)[C@H](O)[C@H](O)[C@H]7O)[C@H](O)[C@H]6NC(C)=O)[C@@H]5O)O[C@H](CO)[C@@H](O)[C@@H]4O)[C@H](NC(C)=O)[C@H]3O)[C@H](O)[C@@H](O)[C@H]2O)C[C@@H]1O (some centres unmarked) [Conjugate-56] |  |  |  |  | 187.6 | 40.2 ± 5.6 | 318.4 | 74.8 ± 11.0
N=C(N)NCCC[C@@H]1NC(=O)CNC(=O)[C@@H]2CSSCC[C@H](NC(=O)[C@H](Cc3c[nH]c4ccccc34)NC(=O)[C@H](CC(=O)O)NC1=O)C(=O)N[C@@H](CCCNC(=N)N)C(=O)N[C@@H](Cc1c[nH]c3ccccc13)C(=O)N[C@@H](C1CCCC1)C(=O)N[C@H](C(N)=O)CSCC(=O)N[C@@H](Cc1ccc3ccccc3c1)C(=O)N[C@@H](CCCNC(=N)N)C(=O)N2 [Peptide-126] ({CH2CO}-[2Nal]RCGRDW[hCys]RW[Gly(cPent)]C-NH2; disulfide 3-8; thioether N-12) | 100 | 98.3 | 99.6 |  |  |  |  | 
N=C(N)NCCC[C@@H]1NC(=O)CNC(=O)[C@@H]2CCSSCC[C@H](NC(=O)[C@H](Cc3c[nH]c4ccccc34)NC(=O)[C@H](CC(=O)O)NC1=O)C(=O)N[C@@H](CCCNC(=N)N)C(=O)N[C@@H](Cc1c[nH]c3ccccc13)C(=O)N[C@@H](C1CCCC1)C(=O)N[C@H](C(N)=O)CSCC(=O)N[C@@H](Cc1ccc3ccccc3c1)C(=O)N[C@@H](CCCNC(=N)N)C(=O)N2 [Peptide-11] ({CH2CO}-[2Nal]R[hCys]GRDW[hCys]RW[Gly(cPent)]C-NH2; disulfide 3-8; thioether N-12) | 89.9 | 88 | 105 | high serum stability |  |  |  | 
CC(C)[C@@H]1NC(=O)[C@H](Cc2c[nH]c3ccccc23)NC(=O)[C@H](CC(N)=O)NC(=O)[C@H](CCNC(=N)N)NC(=O)CNC(=O)[C@H](CO)NC(=O)[C@H](CCCNC(=N)N)NC(=O)[C@H](Cc2ccc3ccccc3c2)NC(=O)CSC[C@@H](C(N)=O)NC(=O)[C@H](C2CCCC2)NC(=O)[C@H](Cc2c[nH]c3ccccc23)NC(=O)[C@H](CCCNC(=N)N)NC1=O [Peptide-115] ({CH2CO}-[2Nal]RSG[Agb]NWVRW[Gly(cPent)]C-NH2; thioether N-12) | 14.9 | 64.5 | 78.2 |  |  |  |  | 
N=C(N)NCCC[C@@H]1NC(=O)CNC(=O)[C@@H]2CSCSC[C@H](NC(=O)[C@H](Cc3c[nH]c4ccccc34)NC(=O)[C@H](CC(=O)O)NC1=O)C(=O)N[C@@H](CCCNC(=N)N)C(=O)N[C@@H](Cc1c[nH]c3ccccc13)C(=O)N[C@@H](C1CCCC1)C(=O)N[C@H](C(N)=O)CSCC(=O)N[C@@H](Cc1ccc3ccccc3c1)C(=O)N[C@@H](CCCNC(=N)N)C(=O)N2 [Peptide-130] ({CH2CO}-[2Nal]RCGRDWCRW[Gly(cPent)]C-NH2; linker 3-8 via CH2; thioether N-12) | 93.5 | 98 | 88 | high serum stability |  |  |  | 
N=C(N)NCCC[C@@H]1NC(=O)CNC(=O)[C@@H]2CCSCSCC[C@H](NC(=O)[C@H](Cc3c[nH]c4ccccc34)NC(=O)[C@H](CC(=O)O)NC1=O)C(=O)N[C@@H](CCCNC(=N)N)C(=O)N[C@@H](Cc1c[nH]c3ccccc13)C(=O)N[C@@H](C1CCCC1)C(=O)N[C@H](C(N)=O)CSCC(=O)N[C@@H](Cc1ccc3ccccc3c1)C(=O)N[C@@H](CCCNC(=N)N)C(=O)N2 [Peptide-127] ({CH2CO}-[2Nal]R[hCys]GRDW[hCys]RW[Gly(cPent)]C-NH2; linker 3-8 via CH2; thioether N-12) | 95.1 | 90 | 97.5 |  |  |  |  | 
N=C(N)NCCC[C@@H]1NC(=O)CNC(=O)[C@@H]2CSCSCC[C@H](NC(=O)[C@H](Cc3c[nH]c4ccccc34)NC(=O)[C@H](CC(=O)O)NC1=O)C(=O)N[C@@H](CCCNC(=N)N)C(=O)N[C@@H](Cc1c[nH]c3ccccc13)C(=O)N[C@@H](C1CCCC1)C(=O)N[C@H](C(N)=O)CSCC(=O)N[C@@H](Cc1ccc3ccccc3c1)C(=O)N[C@@H](CCCNC(=N)N)C(=O)N2 [Peptide-131] ({CH2CO}-[2Nal]RCGRDW[hCys]RW[Gly(cPent)]C-NH2; linker 3-8 via CH2; thioether N-12) | 89.2 | 89.2 | 101 | high serum stability |  |  |  | 

Source: patent US20250228958A1, “TSP1 INHIBITOR” (Daiichi Sankyo Company, Limited, priority 2022, published 2025)
